Test systems include A498 renal; HCT-15 colon; IGROV1 ovarian; K-562 leukemia; MALME-3M melanoma; MOLT-4 leukemia; NCI-H460 lung; OVCAR-3 ovarian; SK-MEL-28 melanoma; SK-OV-3 ovarian.
Test in all cases: inhibition of tumour cell growth, NCI panel, 48 h

Structures are written as SMILES.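 Step 1: Grow cells in 96-well plates. Step 2: Expose to compound for 48 hours at 5 concentrations. Step 3: Interpolate endpoints linearly; if unreached, use highest concentration. GI50 is the concentration that inhibits growth by half. At the TGI there is no net growth.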 Bounds are passed on as bounds.

`Cc1ccccc1C(O)(c1nccn1C)c1nccn1C`: the TGI with A498 renal, in the assay on HCT-15 colon, in the assay on IGROV1 ovarian, in the assay with K-562 leukemia, in the assay on MALME-3M melanoma and in the assay with MOLT-4 leukemia was greater than 100 µM each time. Further, the TGI in the assay on NCI-H460 lung, with OVCAR-3 ovarian, in the assay on SK-MEL-28 melanoma and in the assay with SK-OV-3 ovarian was greater than 100 µM in each case.

For `O=c1oc(-c2ccc(O)c(O)c2)cc2cccc(O)c12`, the TGI in the assay with A498 renal was 42.4 µM; with HCT-15 colon, greater than 100 µM; in the assay on IGROV1 ovarian, greater than 64.7 µM; with K-562 leukemia, 49.2 µM; with MALME-3M melanoma, greater than 86.5 µM; in the assay with MOLT-4 leukemia, 52 µM. Also, the TGI was greater than 68.2 µM in the assay with NCI-H460 lung, greater than 62.4 µM in the assay on OVCAR-3 ovarian, 87.3 µM with SK-MEL-28 melanoma and 74.9 µM in the assay on SK-OV-3 ovarian. The GI50 in the assay on SK-MEL-28 melanoma was 24.6 µM.

As to `O=S(=O)(O)c1cc2ccc1/C=C\c1ccc(cc1S(=O)(=O)O)N=Nc1ccc(c(S(=O)(=O)O)c1)/C=C\c1ccc(cc1S(=O)(=O)O)N=N2`, the TGI with A498 renal, with HCT-15 colon, with IGROV1 ovarian, in the assay with K-562 leukemia, in the assay with MALME-3M melanoma and in the assay with MOLT-4 leukemia was greater than 100 µM in each case. Moreover, the TGI in the assay on NCI-H460 lung, with OVCAR-3 ovarian, in the assay with SK-MEL-28 melanoma and with SK-OV-3 ovarian was greater than 100 µM throughout.

Take `CCN(CCO)CC1COc2ccccc2O1` (stereo unspecified): the TGI in the assay on A498 renal, in the assay on HCT-15 colon, with IGROV1 ovarian, in the assay with K-562 leukemia, in the assay with MALME-3M melanoma and in the assay on MOLT-4 leukemia was greater than 100 µM in each case. Also, the TGI in the assay with NCI-H460 lung, with OVCAR-3 ovarian, with SK-MEL-28 melanoma and in the assay with SK-OV-3 ovarian was greater than 100 µM throughout.

For the compound `NNC(=O)c1ccc[n+](CCc2ccccc2)c1`, the TGI in the assay with A498 renal, in the assay with HCT-15 colon, in the assay with IGROV1 ovarian, in the assay with K-562 leukemia, in the assay on MALME-3M melanoma and with MOLT-4 leukemia was greater than 100 µM throughout. The TGI in the assay with NCI-H460 lung, in the assay on OVCAR-3 ovarian, with SK-MEL-28 melanoma and in the assay with SK-OV-3 ovarian was greater than 100 µM each time.

In the case of `CC(C)/C(Cl)=N\OC(=O)Nc1ccc(C#N)cc1`, the TGI with A498 renal was 27.7 µM; in the assay with HCT-15 colon it was 22.6 µM; in the assay on IGROV1 ovarian, 32.7 µM; in the assay on K-562 leukemia, 4.82 µM; with MALME-3M melanoma it was 6.81 µM; with MOLT-4 leukemia, 5.41 µM. For the same compound, the TGI with NCI-H460 lung was 33.4 µM; with OVCAR-3 ovarian it was 30.5 µM; in the assay on SK-MEL-28 melanoma it was 25 µM; with SK-OV-3 ovarian it was 31.1 µM.

In the case of `CCN(CC)CCOc1ccc(N2C(=O)c3cc(OC)c(OC)cc3C2=O)cc1`, the TGI in the assay on A498 renal, with HCT-15 colon, in the assay with IGROV1 ovarian, with K-562 leukemia, in the assay with MALME-3M melanoma and in the assay on MOLT-4 leukemia was greater than 100 µM each time. The TGI in the assay with NCI-H460 lung, with OVCAR-3 ovarian, in the assay on SK-MEL-28 melanoma and with SK-OV-3 ovarian was greater than 100 µM throughout.

For the compound `CCOC(=N)n1c(=O)n(C2=NCCN2)c2ccccc21`, the TGI in the assay on A498 renal, in the assay on HCT-15 colon, with IGROV1 ovarian, in the assay with K-562 leukemia, in the assay with MALME-3M melanoma and with MOLT-4 leukemia was greater than 100 µM in each case. In addition, the TGI in the assay on NCI-H460 lung, in the assay with OVCAR-3 ovarian, in the assay with SK-MEL-28 melanoma and with SK-OV-3 ovarian was greater than 100 µM throughout.

Regarding `CCCCC1c2c([nH]c3ccccc23)C2C(=O)N(c3ccc(OC)cc3)C(=O)C2C1CCC` (stereo unspecified), the TGI in the assay on A498 renal was 6.71 µM; with HCT-15 colon, greater than 10 µM; in the assay with IGROV1 ovarian, greater than 10 µM; in the assay with K-562 leukemia, 7.43 µM; in the assay with MALME-3M melanoma, 9.42 µM; in the assay with MOLT-4 leukemia it was 7.97 µM. The TGI was greater than 10 µM in the assay on NCI-H460 lung, 6.26 µM in the assay on OVCAR-3 ovarian, greater than 10 µM in the assay on SK-MEL-28 melanoma and greater than 10 µM with SK-OV-3 ovarian.

On to `CCCNC(=O)CCC(C)[C@H]1CCC2C3C(C[C@H](OC(C)=O)[C@@]21C)[C@@]1(C)CCC2(C[C@H]1C[C@H]3OC(C)=O)OOC1(CCC(C)CC1)OO2` (stereo partly specified), for which the TGI in the assay with A498 renal was 74.5 µM; with HCT-15 colon it was greater than 100 µM; with IGROV1 ovarian, 4.36 µM; with K-562 leukemia, greater than 100 µM; in the assay on MALME-3M melanoma, 40.3 µM; in the assay with MOLT-4 leukemia it was greater than 100 µM. Moreover, the TGI in the assay with NCI-H460 lung was 71.2 µM; in the assay with OVCAR-3 ovarian it was 18.5 µM; with SK-MEL-28 melanoma, greater than 100 µM; with SK-OV-3 ovarian, greater than 100 µM.

Turning to `COc1cc(C2CC(C)(Nc3ccccc3)Oc3cc4c(cc32)OCO4)cc(OC)c1OC` (stereo unspecified), the TGI with A498 renal is greater than 100 µM; with HCT-15 colon, greater than 100 µM; in the assay with IGROV1 ovarian, greater than 59.8 µM; in the assay with K-562 leukemia, greater than 100 µM; in the assay with MALME-3M melanoma it was greater than 100 µM; with MOLT-4 leukemia, greater than 31.6 µM. The TGI in the assay on NCI-H460 lung is 25.6 µM; in the assay on OVCAR-3 ovarian it was 3.52 µM; with SK-MEL-28 melanoma, greater than 100 µM; with SK-OV-3 ovarian it was 25.9 µM.

The values are drawn from PubChem BioAssay (NCI).
